Measurements as given in patent US20240239786A1, “COMPOSITIONS AND METHODS FOR THE TREATMENT AND PREVENTION OF CANCER” (Yale University, priority 2021, published 2024).

Columns and labels:
DNA synthesis = conditions: cited from earlier work
[1] = cited from earlier work
Hs 832(C).T cells = assay: Caspase 3/7 assay, Hs 832(C).T; assay type: cell-based; conditions: benign ovarian cyst fibroblast cells Hs 832(C).T
Protocol: Cells were pre-treated with 30 μM DB4 for 1 hr and then treated with various concentrations of olaparib for 72 hr. Cell survival was determined by MTS cytotoxicity assay. Data are means±SD (N=3-4). […] EOB calculation was used to quantify the synergy of the combination of DB4 and various concentrations of olaparib in PEO1 or PEO4 cells as shown in FIG. 8A. EOB>0, synergism; EOB=0, additivity; EOB<0, antagonism. […] Cells were pre-treated with 30 μM DB4-F for 1 hr and then treated with various concentrations of olaparib for 72 hr. Cell survival was determined by MTS cytotoxicity assay. Data are means±SD (N=3-4). […] EOB calculation was used to quantify the synergy of the combination of DB4-F and various concentrations of olaparib in PEO1 or PEO4 cells as shown in FIG. 8B. […] Cell survival was determined by MTS cytotoxicity assay. […] Caspase 3/7 activity was expressed as RLU per μg/μl protein. […] Caspase 3/7 activity was expressed as RLU per μg/μl protein. […] Cells were treated and caspase 3/7 activity was measured as described in FIG. 8G and FIG. 8H.
Furthermore, the effects of DB4 on olaparib-induced apoptosis at 24 hr were evaluated. […]
The assay was performed as described previously (Lin Z P et al., 2018, PLOS One, 13:e0207399). […] Total protein concentration of cell lysates was determined as described above. Caspase 3/7 activity was expressed as luminescence units (RLU) per μg/μL protein for each sample.

[2] = Chemical stability of DB4 in culture medium by mass spectrometry; assay type: physicochemical; conditions: 50 μM, 37° C., 72 hr vs 0 hr
Protocol: DB4 remained mostly active and intact after 72 hr in the culture medium. The dose response curve of DB4 in DNA synthesis inhibition in PEO4 cells was generated as determined by EdU flow cytometric analysis. […] PEO4 cells were treated with these media for 24 hr. The level of DNA synthesis inhibition was determined to interpolate and calculate % DB4 remaining compared with the control at 0 hr. FIG. 5B depicts representative results for remaining DB4 after DB4 (MW=496.1) was added to the culture medium at 50 μM for 0 hr, 24 hr, 48 hr, or 72 hr at 37° C. FIG. 5C depicts representative mass spectrum obtained from mass spectrometry that was run to detect the level of the 496.13 ion at 0 hr. FIG. 5D depicts representative mass spectrum obtained from mass spectrometry that was run to detect the level of the 496.13 ion at 72 hr.
To ensure that DB4 remained chemically stable, the time course study was performed by determining the potency of DB4 following a pre-incubation in the cell-free medium at 37° C. for up to 72 hr. Cells were treated for 24 hr with the medium containing pre-incubated DB4 and DNA synthesis was determined by the EdU incorporation assay.
DB4 was dissolved in DMEM medium at 50 μM and incubated for 0 hr, 24 hr, 48 hr, and 72 hr at 37° C. and flash frozen after incubation. […]

| Structure (SMILES) | time to halt DNA synthesis (DNA synthesis) [h] | side effects ([1]; patients) | clinical response rates ([1]; phase I/II studies) | effect on apoptotic effects of olaparib (caspase 3/7) (Hs 832(C).T cells) | level of DB4 by mass spectrometry [2] |
| --- | --- | --- | --- | --- | --- |
| NC(=S)NN=Cc1ncccc1N [triapine, 3-aminopyridine-2-carboxaldehyde-thiosemicarbazone, reference compound] | ≤ 1 | methemoglobinemia and dyspnea | more than 80% |  |  |
| C=CCn1c(SCc2cccc(Cl)c2)nnc1C1CCN(Cc2nc3ccccc3s2)CC1 [DB4, 2-[(4-{4-allyl-5-[(3-chlorobenzyl)thio]-4H-1,2,4-triazol-3-yl}-1-piperidinyl)methyl]-1,3-benzothiazole] |  |  |  | did not enhance the apoptotic effects of olaparib | remained similar to that of the 0 hr control |
